According to article PMC9131456, “Structure-Based Discovery of Lipoteichoic Acid Synthase Inhibitors” (Journal of Chemical Information and Modeling, 2022):

What was measured:
[1] = tested on: S. aureus (strain Newman); test: Non-lethal S. aureus lung infection mouse model; type: in vivo, BALB/c female mice; conditions: single intranasal dose of 300 μg 3 h postinfection; lungs collected 24 h postinfection; 5 × 10^7 CFU intranasal
Text: All in vivo experiments were done at the University of Liverpool under the UK Animals (Scientific Procedures) Act 1986 guidelines. The protocols were approved by the UK Home Office and by the University of Liverpool Animal Welfare and Ethics Committee. Six to eight week old BALB/c female mice (Charles River, UK) were used in the study after being left to acclimatize for a minimum of 7 days prior to experimentation. Mice were intranasally infected with 5 × 10^7 CFU of the S. aureus (strain Newman) in 50 μL of sterile phosphate-buffered saline (PBS). The bacterial dose was prepared by incubating 50 μL of an overnight culture in brain heart infusion (BHI) broth (Oxoid, Thermo Fisher Scientific, UK) into 5 mL of fresh BHI. Once the culture reached an OD600 = 2–3, the bacterial numbers were adjusted to the desired dose using sterile PBS. Three hours postinfection, mice were intranasally treated with either 50 μL of sterile PBS (control) or with 300 μg of compounds 1771 and compound 4 dissolved in 50 μL of sterile PBS. The final DMSO concentration was 5%, and the PBS control also contained 5% DMSO. Mice were culled 24 h postinfection; lungs were collected, homogenized, and serially diluted to determine CFU counts.[70] Significant differences were determined using the unpaired two-tailed Student t-test (p = 0.0013).

[2] = target: T1, wild-type eLtaS (Staphylococcus aureus, UniProt Q2G093); test: Isothermal titration calorimetry, wild-type eLtaS; type: binding, S. aureus; conditions: ITC; for Kd: 25 °C, wild-type eLtaS titrated into 10 μM inhibitor
T1 construct: LtaS is a transmembrane protein with a large extracellular catalytic domain (denoted as eLtaS); His-tag; made in house; host or cells: E. coli (Rosetta; plasmid pProEX-eLtaS from strain ANG571)
T1 sequence (Q2G093 218-646): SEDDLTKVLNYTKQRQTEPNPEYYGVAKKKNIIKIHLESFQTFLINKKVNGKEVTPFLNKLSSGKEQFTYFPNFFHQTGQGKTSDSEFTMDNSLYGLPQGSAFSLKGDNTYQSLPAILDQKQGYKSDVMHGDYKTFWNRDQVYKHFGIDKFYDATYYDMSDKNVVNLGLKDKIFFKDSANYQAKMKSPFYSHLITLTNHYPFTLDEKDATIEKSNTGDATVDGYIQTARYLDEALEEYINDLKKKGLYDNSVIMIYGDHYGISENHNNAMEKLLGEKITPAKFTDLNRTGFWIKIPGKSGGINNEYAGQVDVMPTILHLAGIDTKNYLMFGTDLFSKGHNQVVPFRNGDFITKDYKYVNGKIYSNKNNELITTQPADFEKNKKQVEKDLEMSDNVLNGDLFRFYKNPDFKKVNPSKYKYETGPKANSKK
Procedure: Each of the eLtaS proteins were purified from 6 L of E. coli cultures that were grown with aeration in LB medium supplemented with 200 μg/mL of carbenicillin and 34 μg/mL of chloramphenicol at 37 °C. When the cultures reached an OD600nm of about 0.6, protein expression was induced with 1 mM IPTG final concentration at 21 °C overnight. Later, the bacteria were harvested by centrifugation at 11,899g, and the bacterial pellets were resuspended with lysis buffer (50 mM Trizma-HCl, pH 7.5, 300 mM NaCl, 5% glycerol, 10 mM imidazole, 5 mM β-mercaptoethanol). The bacterial pellets were lyzed by three passages through a high-pressure emulsifier, and the lysates were centrifuged at 47,596g for 30 min at 4 °C. The resulting supernatants containing the His-tagged eLtaS proteins were filtered with a 0.22 μm filter before being loaded onto a 5 mL Ni-NTA column using an ÄKTApure protein purification system. The bound proteins were subsequently washed with lysis buffer, eluted using the elution buffer (50 mM Trizma-HCl, pH 7.5, 300 mM NaCl, 5% glycerol, and 300 mM imidazole), and dialyzed twice using the dialysis buffer [25 mM Trizma-HCl, pH 7.5, 100 mM NaCl, 10% glycerol, 1 mM ethylenediaminetetraacetic acid (EDTA)]. After dialysis, protein purity was confirmed to be >90% using SDS-PAGE. Proteins were then concentrated, snap-frozen in liquid N2, and stored at −80 °C prior to usage. All four eLtaS proteins were subjected to circular dichroism analysis, and their exact masses were determined using MS.
The thawed eLtaS proteins were dialyzed using D-Tube Dialyzer Mini (EMD Millipore) in 20 mM Trizma-HCl pH 7.5, 100 mM NaCl with Chelex 100 (Sigma-Aldrich) for 1.5 h twice on the same day prior to the ITC experiments. After dialysis, the eLtaS proteins were centrifuged at 20,000g at 10 °C for 10 min. The supernatants were transferred to new microcentrifuge tubes and diluted to 100 μM using the same buffer as above with an addition of 0.1% (v/v) DMSO. Meanwhile, the eLtaS inhibitors were diluted to 10 μM using the same buffer and maintaining 0.1% (v/v) DMSO. The eLtaS proteins were titrated into the main cell containing the inhibitors using a VP-ITC at 25 °C. The injection parameters were set as follows: a reference power of 15 μcal/s, an initial injection of 3 μL over a duration of 3.6 s, and then subsequent injections of 10 μL over a duration of 12 s. All injections were spaced with 240 s with a filter period of 2 s. Data were first analyzed in NITPIC[69] for baseline calculations and then fit for thermodynamic parameters using the OneSite model in Origin 7.0 software.

[3] = tested on: MRSA strain COL; test: Potentiation (checkerboard synergy) assay; type: cell-based, S. aureus
Procedure: All the compounds tested in this study were dissolved in dimethyl sulfoxide (DMSO) at an initial stock concentration of 20 mM and stored at −20 °C. These compounds were tested for their antimicrobial activity using the microdilution broth method[66] following the protocol described by Richter et al.[30] Briefly, overnight cultures of S. aureus (strain Newman) grown at 37 °C in cation-adjusted Mueller Hinton II (MH2) broth were adjusted to an OD600nm of 0.6 before back-diluted with a factor of 1:2000 with the same broth. After that, 200 μL of the diluted bacterial culture were dispensed into each well of 96-well plates supplemented with the compounds to the desired concentrations. The plates were then sealed with a moisture membrane barrier and incubated statically for 20 h at 37 °C. After that, the OD600nm values of the cultures in each well were measured using a CLARIOstar microplate reader (BMG Labtech). The procedures for the potentiation assays were by large the same as described above with some variations. In such assays, MRSA strain COL was grown in the 96-well plates supplemented with different concentrations of compound 9 with methicillin, carbenicillin, or polymyxin B in a checkerboard format. Their synergistic effects were quantified by OD600nm measurements using a CLARIOstar microplate reader (BMG Labtech).

[4] = tested on: S aureus (strain Newman) biofilm; test: Biofilm assay (crystal violet); type: cell-based; conditions: 20 h, compound tested at 50, 25 and 12.5 μM
Procedure: Biofilm assays were carried out on 96-well flat-bottom plates using the protocol described by […] et al.[48] Briefly, S aureus (strain Newman) was grown statically in 96-well plates at 37 °C in Tryptic soy broth supplemented with 0.5% glucose. Each well was additionally supplemented with either DMSO or compound 9 to concentrations of 50, 25, and 12.5 μM. After 20 h, the bacterial cultures from the plates were removed, and each well was rinsed with 150 μL of sterilized distilled water thrice. The plates were then incubated for 1 h at 60 °C. After that, the biofilm in each well was stained with 0.05% (w/v) of crystal violet solution using the protocol described by O'Toole.[67] Finally, the stained biofilms were solubilized with 30% acetic acid and quantified at OD600nm using the BMG Labtech CLARIOstar microplate reader.

[5] = MRSA strain COL, compound 9 at subinhibitory 12.5 μM, checkerboard

SMILES	reduction in recoverable colonies from the lungs [1]	Kd [2]	binding enthalpy ([2]; wild-type eLtaS, compared with 1771)	reduction of the minimum inhibitory concentration of carbenicillin [3, 5]	reduction of the minimum inhibitory concentration of methicillin [3, 5]	increase in sensitivity toward polymyxin B ([3]; MRSA strain treated with compound 9, checkerboard)	reduction in biofilm attachment [4]
O=C(COC(=O)c1cn(-c2ccccc2)nc1-c1cccs1)Nc1nnc(-c2ccccc2)o1 [Compound 4]	2 log	365 ± 6.8 nM	more exothermic than that of 1771				
S=C(Nc1ccc(Cl)cc1)Nc1ccc(Sc2nc3ccccc3[nH]2)cc1 [Compound 9]		283 nM		32 fold	16 fold	4 fold	50%
